Data as given in patent US5700830A, “Use of nitric oxide-releasing agents for reducing metastasis risk” (The United States of America as represented by the …, priority 1994, dated 1997).
Where a name gives a salt, the structure may show the parent alone. One block for each compound: values may come before it.

How the values were obtained:
[1] = decomposition half-life and nitric oxide release in aqueous buffer; assay type: physicochemical; conditions: pH 7 and 25° C.; for half-life: aqueous buffer
Protocol: The resulting gel was treated with a few drops of methanol until a homogeneous solution was obtained. The solution was transferred into a micro-Parr bottle and bubbled with nitrogen for 5 min, followed by exposure to 40 psi of NO for 72 h.
The system was degassed and charged with 40 psi of nitric oxide.
The system was evacuated, charged with 40 psi of nitric oxide and kept at 25° C. for 48 h. The white crystalline product was collected by filtration and washed with cold methanol as well as with copious amounts of ether. […] This measurement was based on the loss of the 252-nm chromophore in the ultraviolet spectrum.

[2] = cited from earlier work
[3] = test system: RPMI 1846 melanotic melanoma cells adhering to rat mesenteric postcapillary venules; experiment: adhesion of melanoma tumor cells to isolated postcapillary venules; assay type: cell-based, Syrian hamster (tumor cells); Sprague-Dawley rat (vessels); conditions: 1 mM DETA/NO for 30 min, FIG. 1
Protocol: RPMI 1846, a melanotic melanoma of a Syrian hamster, was obtained from the American Type Culture Collection, Rockville, Md., and grown in McCoy's 5A medium (GIBCO, Grand Island, N.Y.) supplemented with 20% fetal bovine serum (GIBCO, Grand Island, N.Y.) at 37° C. in a humidified 5% CO2 atmosphere. […]
A segment of bowel and attached mesentery was excised and placed in a dissecting chamber containing ice-cold, pH 7.4 PSS (same as APSS but without added serum). […] A television camera mounted on the microscope was used to project the image onto a television monitor and the images were recorded using a videocassette recorder. […]
After a 30-min stabilization period, the vessel was perfused with tumor cell suspension. […] The number of cells sitting on the microvessel was observed and recorded. […] Five minutes later, the number of tumor cells remaining adherent to the vessel wall was counted and recorded. The percentage of adherent cells was calculated by dividing the number of tumor cells remaining adherent to the vessel wall after flow was resumed for 5 minutes by the total number of cells setting on the vessel wall when flow was interrupted. […]

[4] = via exhaustion of the relevant enzyme/cofactor system; cited from earlier work
[5] = test system: DNA synthesis; conditions: cited from earlier work

half-life [1]: 6.9 min
NO produced per mole of test agent [1]: 1.72 moles of NO per mole of test agent
Compound: CSCC[C@H](NC(C)=O)C(=O)N1CCN([N+]([O-])=NO)CC1 [Example V, 1-[4-(N-acetyl-L-methionyl)piperazin-1-yl]-1-oxo-2-hydroxydiazene, sodium salt]

Compound: Nitric oxide
solubility in aqueous media [2]: limited solubility in aqueous media

Compound: NCCN(CCN)[N+]([O-])=NO [DETA/NO]
effect on LPS-enhanced tumor cell adhesion to postcapillary venules ([3]; LPS-treated venules): completely blocked the enhancing effect of LPS on tumor cell adhesion
effect on tumor cell adhesion to untreated venules ([3]; untreated venules, P<0.05): decreased tumor cell adhesion to untreated venules

half-life [1]: 5 min
Compound: CCOC(=O)N1CCN([N+]([O-])=NO)CC1 [1-(4-carbethoxypiperazin-1-yl)-1-oxo-2-hydroxydiazene, sodium salt]

Compound: O=[N+]([O-])OCC(CO[N+](=O)[O-])O[N+](=O)[O-] [glyceryl trinitrate]
tolerance [4]: tolerance to glyceryl trinitrate can develop

Compound: CC(=O)N[C@H](C(=O)O)C(C)(C)SN=O (racemic) [S-nitroso-N-acetylpenicillamine]
inhibition of DNA synthesis [5]: effective at inhibiting DNA synthesis
